Measured values published in patent US20250296953A1, “3,4-THIAZOLO-STEROIDS AND METHODS OF MAKING AND USING THE SAME” (Arkansas State University - Jonesboro, priority 2018, published 2025).
Where two headings read alike, the source gives them in different places.

Legend:
glioblastoma (SF-295) = assay: NCI 60 five dose screen
[1] = test system: 60 different human tumor cell lines; assay: NCI Development Therapeutics Program 60 cell line screen, one dose; type: cell-based
NCI-H522 (NSCLC) = assay: NCI 60 one dose screen; type: cell-based, human; conditions: Non-small Cell Lung Cancer
RPMI-8226 = assay: NCI 60 five dose screen
[2] = test system: 60 different human tumor cell lines; assay: cells

C[C@]12CC[C@H]3[C@@H](CC=C4c5sc(Nc6ccccc6)nc5CC[C@@]43C)[C@@H]1CC[C@@H]2O [IIIa.10, (1S,2R,13R,14S,17S,18S)-7-anilino-2,18-dimethyl-8-thia-6-azapentacyclo[11.7.0.02,10.05,9.014,18]icosa-5(9),6,10-trien-17-ol]
GI50 (glioblastoma (SF-295); Homo sapiens, SF-295): 1.06 µM
CC50 (glioblastoma (SF-295); Homo sapiens, SF-295, read-out: LC50): 8.38 µM
TGI (glioblastoma (SF-295); SF-295 (CNS Cancer), five dose): 2.98E−6
Growth Percent ([1]; Breast Cancer, BT-549): 19.16%
Growth Percent ([1]; Breast Cancer, HS 578T): 3.65%
Growth Percent ([1]; Breast Cancer, MCF7): 29.18%
Growth Percent ([1]; Breast Cancer, MDA-MB-231/ATCC): 35.75%
Growth Percent ([1]; Breast Cancer, MDA-MB-468): −1.00%
Growth Percent ([1]; Breast Cancer, T-47D): 16.35%
Growth Percent ([1]; CNS Cancer, SF-268): 9.68%
Growth Percent ([1]; CNS Cancer, SNB-19): 26.54%
Growth Percent ([1]; CNS Cancer, SNB-75): −5.43%
Growth Percent ([1]; CNS Cancer, U251): −30.05%
Growth Percent ([1]; Colon Cancer, COLO 205): 57.13%
Growth Percent ([1]; Colon Cancer, HCC-2998): 98.16%
Growth Percent ([1]; Colon Cancer, HCT-116): −81.48%
Growth Percent ([1]; Colon Cancer, HT29): −38.50%
Growth Percent ([1]; Colon Cancer, KM12): 15.64%
Growth Percent ([1]; Colon Cancer, SW-620): −19.44%
Growth Percent ([1]; Leukemia, CCRF-CEM): 0.74%
Growth Percent ([1]; Leukemia, HL-60(TB)): 15.69%
Growth Percent ([1]; Leukemia, K-562): 4.96%
Growth Percent ([1]; Leukemia, MOLT-4): 6.79%
Growth Percent ([1]; Leukemia, RPMI-8226): −32.33%
Growth Percent ([1]; Leukemia, SR): 8.06%
Growth Percent ([1]; Melanoma, LOX IMVI): −81.48%
Growth Percent ([1]; Melanoma, M14): 53.44%
Growth Percent ([1]; Melanoma, MALME-3M): 71.16%
Growth Percent ([1]; Melanoma, MDA-MB-435): 3.47%
Growth Percent ([1]; Melanoma, SK-MEL-2): 51.68%
Growth Percent ([1]; Melanoma, SK-MEL-5): 34.54%
Growth Percent ([1]; Melanoma, SK-MEL-28): 27.28%
Growth Percent ([1]; Melanoma, UACC-62): 39.84%
Growth Percent ([1]; Melanoma, UACC-257): 69.33%
Growth Percent ([1]; Non-small Cell Lung Cancer, A549/ATCC): 57.08%
Growth Percent ([1]; Non-small Cell Lung Cancer, EKVX): 73.21%
Growth Percent ([1]; Non-small Cell Lung Cancer, HOP-62): 34.18%
Growth Percent ([1]; Non-small Cell Lung Cancer, HOP-92): 103.92%
Growth Percent ([1]; Non-small Cell Lung Cancer, NCI-H23): 67.34%
Growth Percent ([1]; Non-small Cell Lung Cancer, NCI-H226): 63.92%
Growth Percent ([1]; Non-small Cell Lung Cancer, NCI-H322M): 78.38%
Growth Percent ([1]; Non-small Cell Lung Cancer, NCI-H460): 6.06%
Growth Percent ([1]; Ovarian Cancer, IGROV1): 11.15%
Growth Percent ([1]; Ovarian Cancer, NCI/ADR-RES): 36.29%
Growth Percent ([1]; Ovarian Cancer, OVCAR-3): −31.62%
Growth Percent ([1]; Ovarian Cancer, OVCAR-4): 64.10%
Growth Percent ([1]; Ovarian Cancer, OVCAR-5): 92.21%
Growth Percent ([1]; Ovarian Cancer, OVCAR-8): −8.95%
Growth Percent ([1]; Ovarian Cancer, SK-OV-3): 89.65%
Growth Percent ([1]; Prostate Cancer, DU-145): 14.25%
Growth Percent ([1]; Prostate Cancer, PC-3): 39.21%
Growth Percent ([1]; Renal Cancer, 786-0): −49.68%
Growth Percent ([1]; Renal Cancer, ACHN): 36.78%
Growth Percent ([1]; Renal Cancer, CAKI-1): 49.02%
Growth Percent ([1]; Renal Cancer, RXF 393): −32.33%
Growth Percent ([1]; Renal Cancer, SN12C): 10.11%
Growth Percent ([1]; Renal Cancer, TK-10): 65.01%
Growth Percent ([1]; Renal Cancer, UO-31): 26.06%
Growth Percent (NCI-H522 (NSCLC)): 25.77%
GI50 (RPMI-8226; Homo sapiens, RPMI-8226): 0.465 µM
CC50 (RPMI-8226; Homo sapiens, RPMI-8226, read-out: LC50): > 100 µM
TGI (RPMI-8226; RPMI-8226 (Leukemia), five dose): 2.47E−6
GI50 ([2]; 60 cell): 2.37 µM
CC50 ([2]; 60 cell, read-out: LC50): 38.4 µM
GI50 ([2]; 786-0): 1.22 µM
CC50 ([2]; 786-0, read-out: LC50): 8.87 µM
GI50 ([2]; A498): 2.16 µM
CC50 ([2]; A498, read-out: LC50): 20.7 µM
GI50 ([2]; A549): 2.41 µM
CC50 ([2]; A549, read-out: LC50): 46.2 µM
GI50 ([2]; ACHN): 1.71 µM
CC50 ([2]; ACHN, read-out: LC50): 6.19 µM
GI50 ([2]; BT-549): 1.38 µM
CC50 ([2]; BT-549, read-out: LC50): 32.6 µM
GI50 ([2]; CAKI-1): 2.32 µM
CC50 ([2]; CAKI-1, read-out: LC50): 19.2 µM
GI50 ([2]; CCRF-CEM): 1.6 µM
CC50 ([2]; CCRF-CEM, read-out: LC50): > 100 µM
GI50 ([2]; COLO 205): 2.45 µM
CC50 ([2]; COLO 205, read-out: LC50): 50.8 µM
GI50 ([2]; DU-145): 1.7 µM
CC50 ([2]; DU-145, read-out: LC50): 7.68 µM
GI50 ([2]; EKVX): 2.75 µM
CC50 ([2]; EKVX, read-out: LC50): 63.8 µM
GI50 ([2]; HCC 2998): 1.97 µM
CC50 ([2]; HCC 2998, read-out: LC50): 6.42 µM
GI50 ([2]; HCT-15): 1.6 µM
CC50 ([2]; HCT-15, read-out: LC50): 30.6 µM
GI50 ([2]; HCT-116): 1.51 µM
CC50 ([2]; HCT-116, read-out: LC50): 6.01 µM
GI50 ([2]; HL-60): 2.02 µM
CC50 ([2]; HL-60, read-out: LC50): > 100 µM
GI50 ([2]; HOP-62): 2.47 µM
CC50 ([2]; HOP-62, read-out: LC50): > 100 µM
GI50 ([2]; HOP-92): 2.84 µM
CC50 ([2]; HOP-92, read-out: LC50): 27.4 µM
GI50 ([2]; HT-29): 2.13 µM
GI50 ([2]; Hs-578T): 2.16 µM
CC50 ([2]; Hs-578T, read-out: LC50): > 100 µM
GI50 ([2]; IGROV-1): 2.78 µM
CC50 ([2]; IGROV-1, read-out: LC50): > 100 µM
GI50 ([2]; K562): 2.45 µM
CC50 ([2]; K562, read-out: LC50): > 100 µM
GI50 ([2]; KM12): 1.68 µM
CC50 ([2]; KM12, read-out: LC50): 5.77 µM
GI50 ([2]; LOX IMVI): 1.33 µM
CC50 ([2]; LOX IMVI, read-out: LC50): 5.78 µM
GI50 ([2]; M14): 1.84 µM
CC50 ([2]; M14, read-out: LC50): 9.9 µM
GI50 ([2]; MCF7): 1.8 µM
CC50 ([2]; MCF7, read-out: LC50): > 100 µM
GI50 ([2]; MDA-MB-231): 1.99 µM
CC50 ([2]; MDA-MB-231, read-out: LC50): 12.8 µM
GI50 ([2]; MDA-MB-435): 2.25 µM
CC50 ([2]; MDA-MB-435, read-out: LC50): 29.7 µM
GI50 ([2]; MDA-MB-468): 1.72 µM
CC50 ([2]; MDA-MB-468, read-out: LC50): 6.66 µM
GI50 ([2]; MOLT-4): 1.87 µM
CC50 ([2]; MOLT-4, read-out: LC50): > 100 µM
GI50 ([2]; Malme-3M): 2.19 µM
CC50 ([2]; Malme-3M, read-out: LC50): 21.9 µM
GI50 ([2]; NCI-H23): 2.03 µM
CC50 ([2]; NCI-H23, read-out: LC50): 23.7 µM
GI50 ([2]; NCI-H226): 2.4 µM
CC50 ([2]; NCI-H226, read-out: LC50): > 100 µM
GI50 ([2]; NCI-H322M): 2.88 µM
CC50 ([2]; NCI-H322M, read-out: LC50): 35.2 µM
GI50 ([2]; NCI-H460): 1.95 µM
CC50 ([2]; NCI-H460, read-out: LC50): 8.37 µM
GI50 ([2]; NCI-H522): 1.9 µM
CC50 ([2]; NCI-H522, read-out: LC50): 14.3 µM
GI50 ([2]; NCI/ADR-RES): 3.39 µM
CC50 ([2]; NCI/ADR-RES, read-out: LC50): > 100 µM
GI50 ([2]; OVCAR-3): 1.28 µM
CC50 ([2]; OVCAR-3, read-out: LC50): 5.37 µM
GI50 ([2]; OVCAR-4): 3.13 µM
CC50 ([2]; OVCAR-4, read-out: LC50): 56.8 µM
GI50 ([2]; OVCAR-5): 2.68 µM
CC50 ([2]; OVCAR-5, read-out: LC50): 34 µM
GI50 ([2]; OVCAR-8): 3.43 µM
CC50 ([2]; OVCAR-8, read-out: LC50): 93.7 µM
GI50 ([2]; RXF 393): 0.798 µM
CC50 ([2]; RXF 393, read-out: LC50): 5.81 µM
GI50 ([2]; SF-268): 1.66 µM
CC50 ([2]; SF-268, read-out: LC50): 6.62 µM
GI50 ([2]; SK-MEL-2): 2.51 µM
CC50 ([2]; SK-MEL-2, read-out: LC50): 22.2 µM
GI50 ([2]; SK-MEL-5): 1.82 µM
CC50 ([2]; SK-MEL-5, read-out: LC50): 6.4 µM
GI50 ([2]; SK-MEL-28): 1.68 µM
CC50 ([2]; SK-MEL-28, read-out: LC50): 9.49 µM
GI50 ([2]; SK-OV-3): 5.16 µM
CC50 ([2]; SK-OV-3, read-out: LC50): 51.2 µM
GI50 ([2]; SN12C): 1.65 µM
CC50 ([2]; SN12C, read-out: LC50): 6.53 µM
GI50 ([2]; SNB-19): 1.86 µM
CC50 ([2]; SNB-19, read-out: LC50): 7.65 µM
GI50 ([2]; SNB-75): 1.49 µM
CC50 ([2]; SNB-75, read-out: LC50): 6.24 µM
GI50 ([2]; SW-620): 2.27 µM
CC50 ([2]; SW-620, read-out: LC50): 23.2 µM
GI50 ([2]; T47D): 2.41 µM
CC50 ([2]; T47D, read-out: LC50): > 100 µM
GI50 ([2]; TK-10): 2.91 µM
CC50 ([2]; TK-10, read-out: LC50): 23 µM
GI50 ([2]; U-251): 1.36 µM
CC50 ([2]; U-251, read-out: LC50): 5.7 µM
GI50 ([2]; UACC-62): 1.83 µM
CC50 ([2]; UACC-62, read-out: LC50): 8.55 µM
GI50 ([2]; UACC-257): 2.54 µM
CC50 ([2]; UACC-257, read-out: LC50): 30.5 µM
GI50 ([2]; UO-31): 1.67 µM
CC50 ([2]; UO-31, read-out: LC50): 5.56 µM
